Reference: ChEMBL document CHEMBL1201862, “PubChem BioAssay data set” (2004)
Blank lines part the entries; values can stand above or below the compound they belong to. The source made the active and inactive calls.

Tests used:
[1] = molecular target: Eukaryotic translation initiation factor 4E (Mus musculus, UniProt P63073); test: eIF4E–eIF4G protein interaction inhibitors, dose response, biochemical, TR-FRET (AID 855); format: functional;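 further: potency for disrupting eIF4E binding to eIF4GI seen as loss of FRET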
Cytochrome P450 2C9 [2] = molecular target: T1, Cytochrome P450 2C9 (Homo sapiens, UniProt P11712)
[3] = molecular target: T2, Heat shock factor protein 1 (Mus musculus, UniProt P38532); test: inhibition of MG132-induced HSE-luciferase signal, confirmation, cell-based, NIH3T3, luminescence, dose retest (AID 2382); format: functional;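 further: NIH3T3 fibroblasts with HSF1-driven luciferase reporter stressed by proteasome inhibitor MG132; luminescence from HSF1-driven luciferase expression after 8 hours of MG132 stress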
T2 sequence (P38532 whole entry): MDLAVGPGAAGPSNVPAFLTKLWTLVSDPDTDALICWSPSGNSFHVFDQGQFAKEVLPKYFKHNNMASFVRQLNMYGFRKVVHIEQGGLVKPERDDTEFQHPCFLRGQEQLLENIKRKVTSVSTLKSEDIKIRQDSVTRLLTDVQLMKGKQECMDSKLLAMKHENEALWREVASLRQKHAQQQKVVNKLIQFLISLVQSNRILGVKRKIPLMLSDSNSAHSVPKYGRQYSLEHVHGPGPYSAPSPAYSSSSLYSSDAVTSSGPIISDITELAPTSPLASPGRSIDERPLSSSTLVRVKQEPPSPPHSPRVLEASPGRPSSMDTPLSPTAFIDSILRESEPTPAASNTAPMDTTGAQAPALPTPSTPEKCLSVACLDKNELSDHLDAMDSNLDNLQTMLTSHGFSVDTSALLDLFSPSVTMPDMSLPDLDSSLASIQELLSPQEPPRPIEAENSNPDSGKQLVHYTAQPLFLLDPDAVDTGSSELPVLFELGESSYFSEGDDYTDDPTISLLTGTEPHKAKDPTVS

[4] = molecular target: T3, Calpain-2 catalytic subunit (Sus scrofa, UniProt P43367); test: pig calpain II inhibitor potency, dose response, biochemical, fluorogenic peptide substrate (AID 1420); format: functional
T3 sequence (P43367 whole entry): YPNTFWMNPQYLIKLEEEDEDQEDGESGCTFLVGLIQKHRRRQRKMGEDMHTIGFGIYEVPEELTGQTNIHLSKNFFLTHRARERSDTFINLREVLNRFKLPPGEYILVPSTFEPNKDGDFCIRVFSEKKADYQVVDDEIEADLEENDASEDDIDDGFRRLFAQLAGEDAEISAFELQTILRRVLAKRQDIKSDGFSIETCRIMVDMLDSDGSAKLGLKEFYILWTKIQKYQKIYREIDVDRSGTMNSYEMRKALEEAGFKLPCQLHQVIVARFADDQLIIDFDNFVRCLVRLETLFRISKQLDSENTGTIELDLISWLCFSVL

[5] = molecular target: T4, Small ubiquitin-related modifier 1 (Homo sapiens, UniProt P63165); test: inhibitors of SUMO1 partner interactions, dose response, biochemical, FRET (AID 624383); format: functional; details: read-out: IC50_Mean
[6] = molecular target: T4, Small ubiquitin-related modifier 1; test: inhibitors of SUMO1 peptide binding, dose response, biochemical, fluorescence polarization, uHTS hits (AID 624382); format: functional; details: read-out: IC50_Mean
Cytochrome P450 2C9 [7] = molecular target: T1, Cytochrome P450 2C9; remark: listed apart in the source
Cytochrome P450 3A4 = Cytochrome P450 3A4 (Homo sapiens, UniProt P08684);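 further: CYP3A4 tested as one member of a cytochrome P450 panel screen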
[8] = molecular target: T5, DNA repair and recombination protein RAD54-like (Homo sapiens, UniProt Q92698); test: inhibitors of human RAD54 branch migration, confirmation, biochemical, fluorescence, cherry-picked samples, dose series (AID 651657); format: functional
T5 sequence (Q92698 whole entry): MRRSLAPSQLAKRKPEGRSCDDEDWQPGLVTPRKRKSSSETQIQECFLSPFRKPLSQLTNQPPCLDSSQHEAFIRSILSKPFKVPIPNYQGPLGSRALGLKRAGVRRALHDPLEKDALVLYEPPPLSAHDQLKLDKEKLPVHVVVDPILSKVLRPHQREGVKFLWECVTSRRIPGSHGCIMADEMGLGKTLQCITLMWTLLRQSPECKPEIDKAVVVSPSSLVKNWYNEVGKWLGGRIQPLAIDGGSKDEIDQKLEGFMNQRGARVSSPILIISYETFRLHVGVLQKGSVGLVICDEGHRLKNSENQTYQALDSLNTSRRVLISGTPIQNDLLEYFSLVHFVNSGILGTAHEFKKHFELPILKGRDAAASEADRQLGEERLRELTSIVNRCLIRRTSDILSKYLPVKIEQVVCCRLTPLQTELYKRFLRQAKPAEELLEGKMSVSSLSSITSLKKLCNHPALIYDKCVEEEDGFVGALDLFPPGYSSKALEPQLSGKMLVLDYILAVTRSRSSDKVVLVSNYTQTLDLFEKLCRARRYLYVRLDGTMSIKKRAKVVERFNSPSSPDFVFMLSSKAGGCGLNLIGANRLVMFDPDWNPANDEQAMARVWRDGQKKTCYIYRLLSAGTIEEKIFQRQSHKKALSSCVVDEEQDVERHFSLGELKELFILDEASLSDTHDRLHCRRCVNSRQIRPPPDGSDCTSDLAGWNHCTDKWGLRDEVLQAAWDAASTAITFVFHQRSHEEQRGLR

Cytochrome P450 1A2 = molecular target: T6, Cytochrome P450 1A2 (Homo sapiens, UniProt P05177);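 further: PubChem cytochrome P450 panel assay, CYP1A2 panel member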
T6 sequence (P05177 whole entry): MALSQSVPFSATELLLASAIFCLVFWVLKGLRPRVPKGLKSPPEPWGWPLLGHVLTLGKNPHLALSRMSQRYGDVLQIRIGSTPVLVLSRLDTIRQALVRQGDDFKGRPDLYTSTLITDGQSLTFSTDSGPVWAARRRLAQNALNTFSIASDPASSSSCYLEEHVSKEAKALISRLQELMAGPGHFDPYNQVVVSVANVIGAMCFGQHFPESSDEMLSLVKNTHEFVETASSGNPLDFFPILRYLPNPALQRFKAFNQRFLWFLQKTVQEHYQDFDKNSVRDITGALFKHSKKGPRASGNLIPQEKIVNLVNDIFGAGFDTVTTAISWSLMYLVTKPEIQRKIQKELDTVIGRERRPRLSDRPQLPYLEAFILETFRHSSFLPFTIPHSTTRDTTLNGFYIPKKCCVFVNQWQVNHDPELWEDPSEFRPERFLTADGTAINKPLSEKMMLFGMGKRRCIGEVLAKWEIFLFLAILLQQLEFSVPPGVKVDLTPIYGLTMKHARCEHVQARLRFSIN

[9] = molecular target: T7, Corticotropin-releasing factor receptor 2/Corticotropin-releasing factor-binding protein (Homo sapiens, UniProt P24387+Q13324); test: activators of CRF receptor 2 with binding protein – uHTS hits, confirmation (AID 602473); format: functional; details: read-out: EC50_Mean
T7 sequence (Q13324 whole entry): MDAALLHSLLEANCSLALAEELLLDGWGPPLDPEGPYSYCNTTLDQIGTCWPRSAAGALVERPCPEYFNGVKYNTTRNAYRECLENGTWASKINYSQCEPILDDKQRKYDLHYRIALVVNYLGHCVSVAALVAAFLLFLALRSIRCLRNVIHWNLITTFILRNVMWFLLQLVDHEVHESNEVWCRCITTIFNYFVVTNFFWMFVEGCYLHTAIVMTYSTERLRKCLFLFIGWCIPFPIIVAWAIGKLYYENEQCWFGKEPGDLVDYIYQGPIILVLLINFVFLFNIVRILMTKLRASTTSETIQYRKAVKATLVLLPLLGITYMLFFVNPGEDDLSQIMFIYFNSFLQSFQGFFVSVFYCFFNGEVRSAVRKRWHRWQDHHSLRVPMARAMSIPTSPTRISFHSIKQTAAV
T7 sequence (P24387 whole entry): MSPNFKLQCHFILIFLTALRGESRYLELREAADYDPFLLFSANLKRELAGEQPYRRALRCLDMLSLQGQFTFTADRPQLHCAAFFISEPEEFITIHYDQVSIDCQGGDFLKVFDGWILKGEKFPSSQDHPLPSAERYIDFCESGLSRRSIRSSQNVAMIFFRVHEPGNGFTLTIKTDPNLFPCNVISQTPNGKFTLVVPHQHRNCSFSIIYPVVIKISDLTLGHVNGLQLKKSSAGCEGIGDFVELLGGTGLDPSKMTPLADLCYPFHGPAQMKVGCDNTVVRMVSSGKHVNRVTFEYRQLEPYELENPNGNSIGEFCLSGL

[10] = molecular target: T7, Corticotropin-releasing factor receptor 2/Corticotropin-releasing factor-binding protein; test: Dose Response confirmation of uHTS hits for small molecule antagonists of the CRF-binding protein and CRF-R2 receptor complex.; format: functional; details: read-out: IC50_Mean
[11] = molecular target: Induced myeloid leukemia cell differentiation protein Mcl-1 (Homo sapiens, UniProt Q07820); format: functional
[12] = molecular target: T8, DNA repair protein RAD52 homolog (Homo sapiens, UniProt P43351); format: functional, biochemical
T8 sequence (P43351 whole entry): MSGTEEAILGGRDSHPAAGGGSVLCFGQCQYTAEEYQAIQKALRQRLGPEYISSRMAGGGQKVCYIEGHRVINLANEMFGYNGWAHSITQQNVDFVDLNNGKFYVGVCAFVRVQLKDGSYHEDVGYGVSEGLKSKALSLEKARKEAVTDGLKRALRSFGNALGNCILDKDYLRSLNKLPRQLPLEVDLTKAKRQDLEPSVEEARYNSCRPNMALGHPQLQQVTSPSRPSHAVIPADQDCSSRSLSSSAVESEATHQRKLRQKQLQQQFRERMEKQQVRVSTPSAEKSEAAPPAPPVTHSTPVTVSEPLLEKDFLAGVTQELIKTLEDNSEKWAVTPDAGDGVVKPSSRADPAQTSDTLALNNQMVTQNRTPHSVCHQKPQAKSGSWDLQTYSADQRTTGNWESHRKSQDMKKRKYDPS

[13] = inhibitors of HIV Env-driven cell fusion, dose response, cherry-pick (AID 652057); format: functional, cell-based
[14] = inhibitors of clade B AD8 Env fusion, dose response, cell-based, cherry-pick (AID 652062); format: functional;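 further: luciferase signal from cell-cell fusion driven by HIV-1 clade B AD8 Env; potency is for inhibitors of fusion seen as a drop in luminescence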

Chain of Eukaryotic translation initiation factor 4E (P63073 whole entry): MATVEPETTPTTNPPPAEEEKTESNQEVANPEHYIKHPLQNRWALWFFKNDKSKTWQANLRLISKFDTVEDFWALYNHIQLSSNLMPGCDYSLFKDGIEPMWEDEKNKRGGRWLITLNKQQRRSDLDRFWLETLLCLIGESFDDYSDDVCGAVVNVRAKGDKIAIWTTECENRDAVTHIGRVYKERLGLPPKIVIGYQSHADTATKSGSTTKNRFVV
Chain of Induced myeloid leukemia cell differentiation protein Mcl-1 (Q07820 whole entry): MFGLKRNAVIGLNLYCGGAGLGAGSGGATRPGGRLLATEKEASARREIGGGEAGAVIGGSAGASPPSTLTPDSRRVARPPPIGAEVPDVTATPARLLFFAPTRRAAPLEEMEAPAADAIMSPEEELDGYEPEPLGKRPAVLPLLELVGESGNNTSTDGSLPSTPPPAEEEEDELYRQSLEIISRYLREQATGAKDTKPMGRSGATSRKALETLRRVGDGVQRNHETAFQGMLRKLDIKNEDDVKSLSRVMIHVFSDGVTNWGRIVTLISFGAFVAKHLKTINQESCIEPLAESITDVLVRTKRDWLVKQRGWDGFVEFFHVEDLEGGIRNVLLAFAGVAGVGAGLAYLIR
T1 sequence (P11712 whole entry): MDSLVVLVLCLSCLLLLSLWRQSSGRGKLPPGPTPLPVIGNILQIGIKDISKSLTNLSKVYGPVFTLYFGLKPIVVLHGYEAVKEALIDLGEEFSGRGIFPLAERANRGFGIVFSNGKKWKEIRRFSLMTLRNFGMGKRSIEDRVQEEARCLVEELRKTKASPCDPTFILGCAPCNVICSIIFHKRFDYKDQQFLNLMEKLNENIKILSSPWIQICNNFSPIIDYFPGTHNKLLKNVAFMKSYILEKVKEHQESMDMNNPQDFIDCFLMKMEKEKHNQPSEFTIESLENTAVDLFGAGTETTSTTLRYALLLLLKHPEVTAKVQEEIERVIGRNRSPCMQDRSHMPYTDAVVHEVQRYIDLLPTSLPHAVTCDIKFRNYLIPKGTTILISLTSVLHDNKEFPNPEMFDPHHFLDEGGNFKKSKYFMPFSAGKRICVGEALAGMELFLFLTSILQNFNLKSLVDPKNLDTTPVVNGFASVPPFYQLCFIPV
T4 sequence (P63165 whole entry): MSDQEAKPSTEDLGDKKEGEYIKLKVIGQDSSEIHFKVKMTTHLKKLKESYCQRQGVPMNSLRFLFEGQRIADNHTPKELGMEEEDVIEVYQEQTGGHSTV
Chain of Cytochrome P450 3A4 (P08684 whole entry): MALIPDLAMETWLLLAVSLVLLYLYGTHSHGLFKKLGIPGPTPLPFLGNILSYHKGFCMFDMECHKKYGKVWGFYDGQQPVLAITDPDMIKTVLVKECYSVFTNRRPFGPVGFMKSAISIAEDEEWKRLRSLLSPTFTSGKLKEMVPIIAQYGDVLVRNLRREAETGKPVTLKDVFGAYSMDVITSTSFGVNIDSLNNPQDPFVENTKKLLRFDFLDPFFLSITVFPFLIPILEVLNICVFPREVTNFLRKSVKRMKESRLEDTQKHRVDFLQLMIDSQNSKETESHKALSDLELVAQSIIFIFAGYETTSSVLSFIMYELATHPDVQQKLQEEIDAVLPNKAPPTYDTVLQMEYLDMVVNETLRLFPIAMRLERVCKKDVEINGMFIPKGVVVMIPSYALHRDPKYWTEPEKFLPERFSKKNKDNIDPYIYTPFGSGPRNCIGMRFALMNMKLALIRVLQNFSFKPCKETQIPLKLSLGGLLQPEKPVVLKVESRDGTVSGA

SMILES: CC(C)C(NC(=O)C12CC3CC(CC(C3)C1)C2)C(=O)NC1=NCCS1 (stereo unspecified)
AC50 (Cytochrome P450 2C9 [2]): 25.1 µM (inconclusive) | EC50 [3]: > 195 µM (not active) | IC50 [1]: > 64 µM (inactive)

SMILES: CCCC(=O)NCc1ccccc1Cl
IC50 [4]: 36.3 µM (not active)

SMILES: CN(C(=O)COC(=O)c1ccc(-c2ccc(O)cc2)cc1)C1CCS(=O)(=O)C1 (stereo unspecified)
IC50 [5]: 16.1 µM (active) | IC50 [6]: > 66.6 µM (inactive)

SMILES: Cc1ccc(C2=NNC(=O)C(c3c[nH]c4ccccc34)C2)cc1 (stereo unspecified)
IC50 [4]: 46.4 µM (not active)

SMILES: FC(F)(F)c1cnc(/C=C/Nc2ccccc2Cl)c(Cl)c1
AC50 (Cytochrome P450 2C9 [7]): inconclusive | AC50 (Cytochrome P450 3A4): 31.6 µM (inconclusive)

SMILES: CCN1CCN(CCCNC(=O)c2cc3c(=O)oc4ccc(C)cc4c3s2)CC1
AC50 [8]: 36.3 µM (active)

SMILES: Cc1ccc(N(CC(=O)NC2CCCC2)C(=O)c2ccc(C)s2)cc1
IC50 [4]: > 50 µM (not active)

SMILES: CC(C)CC(c1nnnn1C1CCCC1)N1CCC(C(N)=O)CC1 (stereo unspecified)
IC50 [4]: > 50 µM (not active)

SMILES: O=C1CSC(c2ccccc2F)N1c1cc(Cl)ccc1O (stereo unspecified)
AC50 (Cytochrome P450 1A2): 39.8 µM (inconclusive) | AC50 (Cytochrome P450 2C9 [7]): inconclusive | EC50 [9]: > 53 µM (inactive) | IC50 [10]: > 47.1 µM (inactive)

SMILES: Cn1c(N)c(C(=O)COC(=O)C2CCCCC2)c(=O)n(C)c1=O
IC50 [4]: 6.73 µM (active)

SMILES: O=C(C1CCN(S(=O)(=O)c2cccc3nsnc23)CC1)N1CCN(c2ccccc2F)CC1
AC50 (Cytochrome P450 2C9 [7]): inconclusive

SMILES: O=C(Cn1c(=O)n(-c2ccccc2)c(=O)c2sccc21)N1CCCC1
IC50 [11]: 11.6 µM (not active)

SMILES: CCNc1nc(NC(C)C)nc(Oc2ccc(=O)n(C)n2)n1
IC50 [1]: 50 µM (inactive)

SMILES: CCC(=O)Nc1ccc(C(=O)N2CCN(C(=O)c3ccco3)CC2)cc1
IC50 [4]: 25.3 µM (not active)

SMILES: NCCCC[C@H]1CN=C(S)N1CCc1cc(C(F)(F)F)cc(C(F)(F)F)c1
AC50 [12]: 17.4 µM (active)

SMILES: CCN1CCN(Cc2ccc(NC(=O)c3cc(NC(=O)c4cnnc5ccccc45)cc(OC)c3)cc2C(F)(F)F)CC1
AC50 [12]: 24.3 µM (active)

SMILES: COc1ccc(S(=O)(=O)N(C)C[C@@H]2Oc3ccc(NC(=O)C4CCCCC4)cc3CC(=O)N([C@@H](C)CO)C[C@@H]2C)cc1
AC50 [13]: 27.6 µM (active)

SMILES: COCC(=O)N1C[C@@H](C)[C@H](OC)CN(C)C(=O)c2ccc(NC(=O)c3ccc(OC)cc3)cc2OC[C@@H]1C
AC50 [14]: 5.52 µM (active)

SMILES: O=C(O)c1cc(N/N=C/c2ccc(N3CCOCC3)s2)ccc1Cl
IC50 [11]: 3.84 µM (active)

Next, values leading:

IC50 [1]: > 64 µM (inactive)
SMILES: O=C(CN1C(=O)S/C(=C\c2ccc(Cl)cc2)C1=O)NNC(=O)c1ccccc1O

AC50 (Cytochrome P450 2C9 [7]): inconclusive
SMILES: COc1ccc([N+](=O)[O-])cc1NC(=O)CC(C)c1ccccc1 (stereo unspecified)

IC50 [1]: > 64 µM (inactive)
SMILES: COc1ccc(OC)c(Nc2ncnc3sc(-c4ccccc4)cc23)c1

IC50 [11]: 5.86 µM (not active)
SMILES: COc1ccc2nc(NC(=O)Nc3cccc4ccccc34)sc2c1

AC50 (Cytochrome P450 2C9 [7]): inconclusive
SMILES: COc1ccccc1CNc1cc(-c2ccccc2OC)ncn1

IC50 [11]: 5.16 µM (active)
SMILES: Cc1cc(C(=O)OCC(=O)Nc2sc3c(c2C#N)CCC(C)C3)c2ccccc2n1 (stereo unspecified)

IC50 [4]: > 50 µM (not active)
SMILES: CC(C)CC(=O)Nc1nnc(SCC(=O)Nc2ccc(F)cc2)s1

IC50 [1]: > 64 µM (inactive)
SMILES: Nc1ccccc1-c1nnc(SCc2ccccc2F)nc1O

AC50 [8]: 16.6 µM (active) | AC50 [12]: 5.69 µM (active)
SMILES: COc1ccc(-c2cc(NC=O)c3ncc(-c4cccc(C(=O)NCCN(C)C)c4)n3c2)cn1
